Experiments:
[1] = tested on: Plasmodium falciparum; assay: Antiplasmodial activity against Plasmodium falciparum 3D7 infected in human red blood cells assessed as parasite growth inhibition incubated for 72 hrs by SYBR Green I staining based analysis; type: functional, organism-based, Red blood cell; settings: 3D7, Erythrocyte
[2] = tested on: Plasmodium falciparum; assay: Antiplasmodial activity against CQ-resistant Plasmodium falciparum K1 infected in human O+ RBCs assessed as parasite growth inhibition incubated for 72 hrs by ELISA; type: functional, organism-based; settings: K1, 72 h
[3] = tested on: Plasmodium falciparum; assay: Antimalarial activity against Plasmodium falciparum 3D7 assessed as parasite growth inhibition incubated for 42 hrs by [3H]-hypoxanthine incorporation assay; type: functional, organism-based
[4] = Cytotoxicity against human PC-3 cells incubated for 72 hrs by MTT assay; type: toxicity, cell-based
[5] = tested on: Plasmodium falciparum; assay: Antiplasmodial activity against Plasmodium falciparum infected in O+ RBCs assessed as parasite growth inhibition incubated for 36 to 40 hrs by JSB staining based analysis; type: functional, organism-based, RBC
[6] = Plasmodium falciparum, Erythrocyte, read-out: IC50

Compound: C(=N\Nc1ccccc1)/c1cnn(-c2ccccc2)n1
- IC50 [1]: 2.8 µM

Compound: CCOC(=O)Cn1cc(COc2ccc(C3C(Oc4ccc(Cl)cc4Cl)C(=O)N3c3ccc(OCc4cn(CC(=O)OCC)nn4)cc3)cc2)nn1 (stereo unspecified)
- IC50 [2]: 0.85 µM

Compound: COc1ccc2cc3[n+](cc2c1OCc1cn(-c2ccc(S(=O)(=O)Nc4nc(C)cc(C)n4)cc2)nn1)CCc1cc2c(cc1-3)OCO2.[Cl-]
- IC50 [3]: 0.1 µg/mL
- CC50 at 72 h [4]: > 200 µg/mL

Compound: O=C(Cn1cc(CSc2ccc(Br)cc2)nn1)OCc1ccc(Cl)cc1
- IC50 [5, 6]: 0.203 µM

Compound: CCOC(=O)Cn1cc(COc2ccc(C3C(Oc4ccccc4)C(=O)N3c3ccc(OCc4cn(CC(=O)OCC)nn4)cc3)cc2)nn1 (stereo unspecified)
- IC50 [2]: 0.85 µM

Compound: COc1ccc(-n2cc(/C=N/Nc3ccccc3)nn2)cc1
- IC50 [1]: 4.44 µM

Compound: CCCOCc1cn(-c2cc(Cl)cc(Cl)c2)nn1
- IC50 [1]: 2.8 µM

Compound: COc1ccc2cc3[n+](cc2c1OCc1cn(-c2ccc(S(=O)(=O)Nc4ccccc4)cc2)nn1)CCc1cc2c(cc1-3)OCO2.[Cl-]
- IC50 [3]: 0.2 µg/mL
- CC50 at 72 h [4]: > 200 µg/mL

Compound: O/N=C/c1cn(-c2cc(Cl)ccc2Cl)nn1
- IC50 [1]: 2.8 µM

Compound: O=C1C(Oc2ccccc2)C(c2ccc(OCc3cn(Cc4ccccc4)nn3)cc2)N1c1ccccc1 (stereo unspecified)
- IC50 [2]: 0.85 µM

Compound: COc1ccc(N2C(=O)C(Oc3ccccc3)C2c2ccc(OCc3cn(Cc4ccccc4)nn3)cc2)cc1OC (stereo unspecified)
- IC50 [2]: 0.85 µM

Compound: COc1ccc(NS(=O)(=O)c2ccc(-n3cc(COc4c(OC)ccc5cc6[n+](cc45)CCc4cc5c(cc4-6)OCO5)nn3)cc2)cc1.[Cl-]
- IC50 [3]: 0.5 µg/mL
- CC50 at 72 h [4]: > 200 µg/mL

Compound: Cc1ccc(COc2ccc(-n3cc(COc4ccc5ccc(=O)oc5c4)nn3)cc2)cc1
- IC50 ([5]; rbc): 0.38 microg/cm3

Compound: O=C1C(Oc2ccc(Cl)cc2Cl)C(c2ccc(OCc3cn(Cc4ccccc4)nn3)cc2)N1c1ccc(OCc2cn(Cc3ccccc3)nn2)cc1 (stereo unspecified)
- IC50 [2]: 0.97 µM

Compound: Cc1ccc(COC(=O)Cn2cc(CSc3ccc(C)cc3)nn2)cc1
- IC50 [5, 6]: 0.204 µM

Compound: COc1ccc(-n2cc(/C=N/NC(=O)c3ccncc3)nn2)cc1
- IC50 [1]: 2.8 µM

Compound: Clc1cc(Cl)cc(-n2cc(/C=N/Nc3c(Cl)cccc3Cl)nn2)c1
- IC50 [1]: 5.56 µM

Compound: O=C1C(Oc2ccccc2)C(c2ccc([N+](=O)[O-])cc2)N1c1ccc(OCc2cn(Cc3ccccc3)nn2)cc1 (stereo unspecified)
- IC50 [2]: 0.85 µM

Compound: O=C1C(Oc2ccccc2)C(c2ccccc2Cl)N1c1ccc(OCc2cn(Cc3ccccc3)nn2)cc1 (stereo unspecified)
- IC50 [2]: 0.85 µM

Compound: O=C(Cn1cc(CSc2ccc3ccccc3c2)nn1)OCc1ccc([N+](=O)[O-])cc1
- IC50 [5, 6]: 0.207 µM

Compound: COc1ccc2cc3[n+](cc2c1OCc1cn(-c2ccc(S(=O)(=O)Nc4ccc(F)cc4)cc2)nn1)CCc1cc2c(cc1-3)OCO2.[Cl-]
- IC50 [3]: 0.1 µg/mL
- CC50 at 72 h [4]: > 200 µg/mL

Compound: Clc1ccc(N/N=C/c2cnn(-c3ccccc3)n2)cc1
- IC50 [1]: 2.8 µM

Compound: COc1ccc2cc3[n+](cc2c1OCc1cn(-c2ccc(S(=O)(=O)N4CCN(C)CC4)cc2)nn1)CCc1cc2c(cc1-3)OCO2.[Cl-]
- IC50 [3]: 0.1 µg/mL
- CC50 at 72 h [4]: > 200 µg/mL

Compound: Fc1ccc(N/N=C/c2cnn(-c3ccccc3)n2)cc1
- IC50 [1]: 2.8 µM

Compound: CCOC(=O)c1cnn(-c2ccccc2)c1
- IC50 [1]: 2.8 µM

Compound: CCCCCCCCCC(=O)OCc1cn(-c2cc(Cl)cc(Cl)c2)nn1
- IC50 [1]: 2.8 µM

Compound: O=C1C(Oc2ccccc2)C(c2ccc(OCc3cn(Cc4ccccc4)nn3)cc2)N1c1ccc(OCc2cn(Cc3ccccc3)nn2)cc1 (stereo unspecified)
- IC50 [2]: 0.97 µM

Compound: O=C(OCc1cn(-c2ccccc2)nn1)c1ccccc1
- IC50 [1]: 2.8 µM

Compound: Fc1ccc(N/N=C/c2cn(-c3ccc(Cl)cc3)nn2)cc1
- IC50 [1]: 8.45 µM

Compound: Clc1cc(Cl)cc(-n2cc(/C=N/Nc3ccc(Br)cc3)nn2)c1
- IC50 [1]: 2.8 µM

Compound: COc1ccc2cc3[n+](cc2c1OCc1cn(-c2ccc(S(=O)(=O)Nc4ccc([N+](=O)[O-])cc4)cc2)nn1)CCc1cc2c(cc1-3)OCO2.Cl
- IC50 [3]: 0.1 µg/mL
- CC50 at 72 h [4]: > 200 µg/mL

Compound: COc1cccc(C2C(Oc3ccccc3)C(=O)N2c2ccc(OCc3cn(Cc4ccccc4)nn3)cc2)c1 (stereo unspecified)
- IC50 [2]: 0.85 µM

Compound: O=C(Cn1cc(CSc2ccc(Cl)cc2)nn1)OCc1ccccc1
- IC50 [5, 6]: 0.209 µM

Compound: O=C(N/N=C/c1cn(-c2cc(Cl)cc(Cl)c2)nn1)c1ccncc1
- IC50 [1]: 6.96 µM

Compound: Cc1ccc(COC(=O)Cn2cc(CSc3ccc(Br)cc3)nn2)cc1
- IC50 [5, 6]: 0.178 µM

Compound: Cc1ccccc1COc1ccc(-n2cc(COc3cc(=O)oc4ccccc34)nn2)cc1
- IC50 ([5]; rbc): 0.53 microg/cm3

Compound: COc1ccc(-n2cc(COC(=O)c3ccccc3)nn2)cc1
- IC50 [1]: 2.8 µM

Compound: O=C1C(Oc2ccccc2)C(c2ccccc2)N1c1ccc(OCc2cn(Cc3ccccc3)nn2)cc1 (stereo unspecified)
- IC50 [2]: 0.85 µM

Compound: O=C(Cn1cc(CSc2ccc(Cl)cc2)nn1)OCc1ccc(Cl)cc1
- IC50 [5, 6]: 0.208 µM

Compound: O=c1ccc2ccc(OCc3cn(-c4ccc(OCc5ccc(Br)cc5)cc4)nn3)cc2o1
- IC50 ([5]; rbc): 0.54 microg/cm3

Compound: Clc1ccc(Cl)c(-n2cc(/C=N/Nc3c(Cl)cccc3Cl)nn2)c1
- IC50 [1]: 2.8 µM

Compound: COc1ccc2cc3[n+](cc2c1OCc1cn(-c2ccc(S(=O)(=O)Nc4ccc(Cl)cc4)cc2)nn1)CCc1cc2c(cc1-3)OCO2
- CC50 at 72 h [4]: > 200 µg/mL

Compound: CCOCc1cn(-c2ccc(Cl)cc2)nn1
- IC50 [1]: 2.8 µM

Compound: C=CCn1cc(COc2ccc(N3C(=O)C(Oc4ccccc4)C3c3ccccc3)cc2)nn1 (stereo unspecified)
- IC50 [2]: 0.85 µM

Compound: O=C(Cn1cc(CSc2ccc(Br)cc2)nn1)OCc1ccc([N+](=O)[O-])cc1
- IC50 [5, 6]: 0.183 µM

Compound: COc1ccc2cc3[n+](cc2c1OCc1cn(-c2ccc(S(N)(=O)=O)cc2)nn1)CCc1cc2c(cc1-3)OCO2.[Cl-]
- IC50 [3]: 0.1 µg/mL
- CC50 at 72 h [4]: > 200 µg/mL

Compound: O=C(N/N=C/c1cn(-c2ccccc2)nn1)c1ccncc1
- IC50 [1]: 2.8 µM

Compound: Cc1ccc(C2C(Oc3ccccc3)C(=O)N2c2ccc(OCc3cn(Cc4ccccc4)nn3)cc2)cc1 (stereo unspecified)
- IC50 [2]: 0.85 µM

Compound: COc1ccc2cc3[n+](cc2c1OCc1cn(-c2ccc(S(=O)(=O)N4CCN(S(=O)(=O)c5ccc(-n6cc(COc7c(OC)ccc8cc9[n+](cc78)CCc7cc8c(cc7-9)OCO8)nn6)cc5)CC4)cc2)nn1)CCc1cc2c(cc1-3)OCO2.[Cl-].[Cl-]
- IC50 [3]: 0.1 µg/mL
- CC50 at 72 h [4]: > 200 µg/mL

Compound: COc1ccc2cc3[n+](cc2c1OCc1cn(-c2ccc(S(=O)(=O)N4CCCCC4)cc2)nn1)CCc1cc2c(cc1-3)OCO2.[Cl-]
- IC50 [3]: 0.1 µg/mL
- CC50 at 72 h [4]: > 200 µg/mL

Compound: COc1ccc2cc3[n+](cc2c1OCc1cn(-c2ccc(S(=O)(=O)N4CCN(c5ccccn5)CC4)cc2)nn1)CCc1cc2c(cc1-3)OCO2.[Cl-]
- IC50 [3]: 0.1 µg/mL
- CC50 at 72 h [4]: > 200 µg/mL

Compound: O=C(N/N=C/c1cn(-c2ccc(Cl)cc2)nn1)c1ccncc1
- IC50 [1]: 2.8 µM

Compound: C=CCn1cc(COc2ccc(N3C(=O)C(Oc4ccccc4)C3c3ccc([N+](=O)[O-])cc3)cc2)nn1 (stereo unspecified)
- IC50 [2]: 0.85 µM

Compound: COc1ccc2cc3[n+](cc2c1OCc1cn(-c2ccc(S(=O)(=O)Nc4ccc(Br)cc4)cc2)nn1)CCc1cc2c(cc1-3)OCO2.[Cl-]
- IC50 [3]: 0.1 µg/mL
- CC50 at 72 h [4]: > 200 µg/mL

Compound: O=C(OCc1cnn(-c2ccccc2)n1)c1ccccc1
- IC50 [1]: 2.8 µM

Compound: C=CCn1cc(COc2ccc(N3C(=O)C(Oc4ccccc4)C3c3ccc(C)cc3)cc2)nn1 (stereo unspecified)
- IC50 [2]: 0.85 µM

Compound: CCCCOCc1cn(-c2cc(Cl)cc(Cl)c2)nn1
- IC50 [1]: 2.8 µM

Compound: CCOC(=O)Cn1cc(COc2ccc(C3C(OC)C(=O)N3c3ccc(OCc4cn(CC(=O)OCC)nn4)cc3)cc2)nn1 (stereo unspecified)
- IC50 [2]: 0.85 µM

Compound: C=CCn1cc(COc2ccc(N3C(=O)C(Oc4ccccc4)C3c3cccc(OC)c3)cc2)nn1 (stereo unspecified)
- IC50 [2]: 0.85 µM

Compound: COc1ccc(-n2cc(/C=N/Nc3ccc(Cl)cc3)nn2)cc1
- IC50 [1]: 2.8 µM

Compound: C=CCn1cc(COc2ccc(C3C(Oc4ccccc4)C(=O)N3c3ccccc3)cc2)nn1 (stereo unspecified)
- IC50 [2]: 0.85 µM

Compound: Clc1ccc(-n2cc(/C=N/Nc3c(Cl)cccc3Cl)nn2)cc1
- IC50 [1]: 2.8 µM

Compound: CCCOCc1cn(-c2cc(Cl)ccc2Cl)nn1
- IC50 [1]: 2.8 µM

Compound: Cc1ccc(N2C(=O)C(Oc3ccccc3)C2c2ccc(OCc3cn(Cc4ccccc4)nn3)cc2)cc1 (stereo unspecified)
- IC50 [2]: 0.85 µM

Compound: O=C(N/N=C/c1cnn(-c2ccccc2)n1)c1ccncc1
- IC50 [1]: 2.8 µM

Compound: CCCCCCCCCC(=O)OCc1cn(-c2ccc(OC)cc2)nn1
- IC50 [1]: 2.8 µM

Compound: Clc1ccc(N/N=C/c2cn(-c3ccc(Cl)cc3)nn2)cc1
- IC50 [1]: 2.8 µM

Compound: COc1ccc2cc3[n+](cc2c1OCc1cn(-c2ccc(S(=O)(=O)N4CCOCC4)cc2)nn1)CCc1cc2c(cc1-3)OCO2.[Cl-]
- IC50 [3]: 0.1 µg/mL
- CC50 at 72 h [4]: > 200 µg/mL

Compound: O=c1ccc2ccc(OCc3cn(-c4ccc(OCc5ccc(F)cc5)cc4)nn3)cc2o1
- IC50 ([5]; rbc): 0.49 microg/cm3

Compound: C=CCn1cc(COc2ccc(C3C(Oc4ccccc4)C(=O)N3c3ccc(OCc4cn(CC=C)nn4)cc3)cc2)nn1 (stereo unspecified)
- IC50 [2]: 0.85 µM

Compound: C=CCn1cc(COc2ccc(C3C(Oc4ccccc4)C(=O)N3c3ccc(C)cc3)cc2)nn1 (stereo unspecified)
- IC50 [2]: 0.85 µM

Compound: C=CCn1cc(COc2ccc(C3C(Oc4ccc(Cl)cc4Cl)C(=O)N3c3ccc(OCc4cn(CC=C)nn4)cc3)cc2)nn1 (stereo unspecified)
- IC50 [2]: 0.85 µM

Compound: CCOCc1cn(-c2cc(Cl)cc(Cl)c2)nn1
- IC50 [1]: 2.8 µM

Compound: Cc1cccc(C)c1N/N=C/c1cn(-c2cc(Cl)cc(Cl)c2)nn1
- IC50 [1]: 2.8 µM
